From patent US20090156509A1, “Tri-peptide Inhibitors of Serine Elastases” (Accuthera, Inc., priority 2007, published 2009)
Values after ≈ are worked out from the molar mass of the structure shown.

Key:
[1] = Solubility in 0.1 M PBS by LC-MS; type: physicochemical; settings: aqueous buffer, kinetic from dmso stock; 0.1 M PBS pH 7.4, 2% DMSO, 2 hours at 37° C.
Experimental: Solubility of test compounds was measured by adding small volumes of DMSO stock solutions (final concentration 2% DMSO) to 0.1 M PBS (pH 7.4) and incubating for 2 hours at 37° C. Subsequently, the samples were filtered and the concentration of test compounds was determined by LC-MS.

[2] = Plasma stability in dog plasma; type: in vitro ADME; settings: 37° C., 2 hours, read-out: Plasma Stability (t1/2)
Experimental: Plasma stability of test compounds was accessed by incubating with dog plasma (37° C. at 1 μM) for 2 hours. Aliquots were taken at pre-defined times and the disappearance of parent compound was monitored by LC-MS.

[3] = Protein binding in dog plasma by equilibrium dialysis; type: in vitro ADME; settings: 10 μM, 6 hours at 37° C.
Experimental: Protein binding of test compounds in dog plasma was assessed by performing equilibrium dialysis with plasma containing test compound (10 μM) against 0.1 M PBS (pH 7.4). Following incubation (6 hours at 37° C.), the parent compound was measured in both plasma and buffer compartments by LC-MS and the percentage of compound bound to plasma proteins determined. […] Generally it is believed that only the unbound drug is available for pharmacological action.

[4] = target: T1, PR3 (human neutrophil proteinase 3) (Homo sapiens, UniProt P24158); assay: PR3 enzyme inhibition, Ki determination; type: biochemical; settings: substrate Boc-Ala-Pro-Nva-4-chloro-SBzl, pH 7.6
T1 construct: Enzymes PR3 and HNE (HLE) were purchased from Athens Research and Technology (Athens, Ga.) or Elastin Products (Owensville, Mich.); purchased Athens Research and Technology (Athens, Ga.) or Elastin Products (Owensville, Mich.)
T1 sequence (P24158 28-248): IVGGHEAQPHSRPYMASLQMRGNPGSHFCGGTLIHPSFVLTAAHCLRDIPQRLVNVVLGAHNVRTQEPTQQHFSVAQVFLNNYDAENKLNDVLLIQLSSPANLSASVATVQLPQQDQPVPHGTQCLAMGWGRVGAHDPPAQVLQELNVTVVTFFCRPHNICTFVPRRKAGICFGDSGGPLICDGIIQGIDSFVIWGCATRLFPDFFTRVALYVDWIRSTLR
Experimental: (§1) The assays for measurement of PR3 and HNE enzyme and inhibitory activity were performed generally as described by Coeschott et al., Proc. Nat. Acad. Sci. USA, 96: 6261-6266, (1999). Kinetic characterization was performed generally by the techniques of Wieczorek et al., Archives of Biochem. and BioPhys., 367: 193-201 (1999). Enzymes PR3 and HNE (HLE) were purchased from Athens Research and Technology (Athens, Ga.) or Elastin Products (Owensville, Mich.).
(§2) The substrate used for HNE was MeO-Suc-Ala-Ala-Pro-Val-pNA, in 0.05 M sodium phosphate/0.1 M NaCl, pH 7.6, containing 0.001% Triton X-100 and 5% DMSO. The substrate used for PR3 was Boc-Ala-Pro-Nva-4-chloro-SBzl in 0.05 M potassium phosphate/0.1 M KCl, pH 7.6, containing 0.001% Triton X-100, and 10% DMSO. The cleavage of the thiobenzyl ester was detected with 250 μM […] (5′,5′-dithiobis-2-nitrobenzoic acid).

[5] = target: T2, HNE (human neutrophil elastase) (Homo sapiens, UniProt P08246); assay: HNE enzyme inhibition, kinetic Ki determination; type: biochemical; settings: for Ki: substrate MeO-Suc-Ala-Ala-Pro-Val-pNA, pH 7.6, read-out: Ki (NE)
T2 construct: Enzymes PR3 and HNE (HLE) were purchased from Athens Research and Technology (Athens, Ga.) or Elastin Products (Owensville, Mich.); purchased Athens Research and Technology (Athens, Ga.) or Elastin Products (Owensville, Mich.)
T2 sequence (P08246 30-267): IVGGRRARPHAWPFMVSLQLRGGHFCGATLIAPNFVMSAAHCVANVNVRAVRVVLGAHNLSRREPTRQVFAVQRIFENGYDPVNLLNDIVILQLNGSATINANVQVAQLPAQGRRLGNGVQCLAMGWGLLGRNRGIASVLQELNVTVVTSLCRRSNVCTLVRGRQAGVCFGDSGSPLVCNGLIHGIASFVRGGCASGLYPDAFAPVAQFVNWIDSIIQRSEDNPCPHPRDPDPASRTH
Experimental: as §1, §2
The concentration of active site of HNE was determined by titration with N-benzyloxycarbonyl-Ala-Ala-Pro-azaAla p-nitrophenyl ester or an alternative method. For the alternative method, the concentration of the active center of a HNE solution was first titrated with the above p-nitrophenyl ester, this HNE solution was then used to measure the active center concentration of an eglin c solution. Aliquots of the eglin c solution were stored at −70° C. and employed as a second standard to assay the activity of any newly prepared HNE solutions. No change in the activity of eglin c could be detected over a 3 year time interval as long as the solution was stored at −70° C. An important factor which influences the HNE assay is the method of dissolution of lyophilized enyme: if HNE is obtained in the lyophilized state, the protease solution should be dissolved, aliquoted, and stored at −20° C. for at least 48 hours prior to assay, so that the dried protein can be completely hydrated. Freshly dissolved enzyme which has not been stored for 48 hours may have proteolytic activity which is 10%-20% less that of stored enzyme.
Consequently, it is not always easy to achieve conditions in which the initial concentration of free inhibitor, [I]o, is much larger than the initial concentration of free enzyme, [E]o, i.e. the condition of [I]o≧10 [E]o is not easily fulfilled. […]
can only be employed when the condition of [I]o≧10 [E]o is fulfilled. In those cases in which the condition of [I]o≧10 [E]o is not met, the experimental data is analyzed using the Henderson equations according to the classic procedure (Henderson, P. J. F. Biochem. J. 127: 321, 1972) or with equations derived for slow-binding inhibition (Ying, Q-L. et al, Biochemistry 33: 5445, 1994). […]

| solubility at 2 h [1] [µM] | half-life at 1 μM [2] [h] | Plasma Protein Binding (% free) [3] [% free] | Protein binding in dog plasma (% bound) [3] [% bound] | Ki [4] [nM] | Ki [5] [nM] | Ki for HLE (in words) ([5]; tight binding inhibitor of HLE) | Structure (SMILES) |
| --- | --- | --- | --- | --- | --- | --- | --- |
| 164 (≈ 95.7 µg/mL) | > 1.67 | 19.0 | 81 |  |  |  | CC(C)[C@H](NC(=O)CCCCCNC(=O)c1ccccn1)C(=O)N1CCC[C@H]1C(=O)N[C@H](C(=O)C(F)(F)F)C(C)C [AI-167] |
| < 10 | > 1.67 | 1.0 |  | 24 | 0.24 | subnanomolar range | Cc1cccc(Cc2nnc(C(=O)[C@@H](NC(=O)[C@@H]3CCCN3C(=O)[C@@H](NC(=O)OCc3ccccc3)C(C)C)C(C)C)o2)c1 [CE-2072, reference compound] |
| 69 (≈ 45.5 µg/mL) | > 1.67 | 8.0 | 92 | 8.4 | 0.22 |  | CC(C)[C@H](NC(=O)[C@@H]1CCCN1C(=O)[C@@H](NC(=O)CCCCCNC(=O)c1ccccn1)C(C)C)C(=O)c1nnc(-c2ccccc2)o1 [AI-158] |
| 179 (≈ 115 µg/mL) | > 1.67 | 17.0 | 83 | 3.9 | 0.2 |  | CC(C)[C@H](NC(=O)[C@@H]1CCCN1C(=O)[C@@H](NC(=O)CCCCCNC(=O)c1ccccn1)C(C)C)C(=O)c1nnc(C(C)(C)C)o1 [AI-168] |
